According to the NIST ThermoML archive (doi:10.1021/je9008014):
± gives the expanded uncertainty stated by the source.

Columns and labels:
[1] = 101 kPa, Liquid; for mass density: Pycnometric method
[2] = xn = mol fraction of the nth substance listed; conditions: 101 kPa, Liquid, x2 = 0

viscosity ([1]; 293.15 K)	mass density ([1]; 293.15 K)	viscosity ([1]; 298.15 K)	mass density ([1]; 298.15 K)	viscosity ([1]; 303.15 K)	mass density ([1]; 303.15 K)	mass density ([1]; 308.15 K)	viscosity ([1]; 313.15 K)	mass density ([1]; 313.15 K)	viscosity ([1]; 323.15 K)	mass density ([1]; 323.15 K)	viscosity ([1]; 333.15 K)	mass density ([1]; 333.15 K)	SMILES	viscosity ([2]; 293.15 K)	viscosity ([2]; 303.15 K)	viscosity ([2]; 313.15 K)	viscosity ([2]; 323.15 K)	mass density ([2]; 333.15 K, Pycnometric method)	viscosity ([2]; 333.15 K)
7.796 ± 0.16 mPa·s	1020.6 ± 2.1 kg/m3	6.739 ± 0.14 mPa·s	1016.3 ± 2.1 kg/m3	5.657 ± 0.12 mPa·s	1011.9 ± 2.1 kg/m3	1008.1 ± 2.1 kg/m3	4.185 ± 0.094 mPa·s	1003.9 ± 2.1 kg/m3	3.326 ± 0.076 mPa·s	995.5 ± 2 kg/m3	2.627 ± 0.061 mPa·s	986.7 ± 2 kg/m3	CCOCCOCCOCCO [2-(2-(2-ethoxyethoxy)ethoxy)ethanol]						
													O [water] + CCOCCOCCOCCO	1.005 ± 0.025 mPa·s	0.8007 ± 0.02 mPa·s	0.656 ± 0.017 mPa·s	0.5494 ± 0.015 mPa·s	983.2 ± 2 kg/m3	0.4688 ± 0.013 mPa·s
